Assay results: the supplement of paper PMC11208160

Assay: recombinant barcode read abundance after kanamycin selection (control-corrected) (log10(CPM+1)); higher = more efficient recombination; sequences stand for … in AGTGCAGAGAAAATCGGCCAGTTTTCTCTGCCTGCAGTCCGCATGCCGT…AGATTTATGCAGCGGACTGCCTTTCTCCCAAAGTGATAAACCGGACAGTATCATGGACCGGTTTTCCCGGTAATCCGTATTTGCAAGGTTGGTTTCACT; site = the 11-nt target
How it was run: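 Recombination efficiency in this pooled E. coli screen uses counts per million of barcodes at recombinant junctions, averaged and corrected against the control. The reported form is log10(CPM+1). Two replicates were plated on chloramphenicol/ampicillin LB agar as control and two on chloramphenicol/ampicillin/kanamycin with 0.1 mM IPTG.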
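Note: IS621 recombinase and bridge RNA in Escherichia coli cells.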

GATAACTCTTGGGTTCTAACCTGTTGCCT (site TATAACTCTAG)
recombinant barcode read abundance (log10): 0.315

GATACTGCTTGGGTTCTAACCTGTTGCCT (site GAAACTGCTAG)
recombinant barcode read abundance (log10): 0.0212

GATACTGCTTGGGTTCTAACCTGTTGCCT (site GACACTGCTAG)
recombinant barcode read abundance (log10): 0.434

GATACTGCTTGGGTTCTAACCTGTTGCCT (site GAGACTGCTAG)
recombinant barcode read abundance (log10): 0.0206

GATACTGCTTGGGTTCTAACCTGTTGCCT (site GATACTGCTAG)
recombinant barcode read abundance (log10): 0.504

GATAGGACTTGGGTTCTAACCTGTTGCGT (site GATAGGACTAC)
recombinant barcode read abundance (log10): 2.12

GATAGGACTTGGGTTCTAACCTGTTGCGT (site TATAGGACTAC)
recombinant barcode read abundance (log10): 2.03

GATAGGGCTTGGGTTCTAACCTGTTGCGG (site GATAGGGCTCC)
recombinant barcode read abundance (log10): 2.34

GATAGGGCTTGGGTTCTAACCTGTTGCGG (site TATAGGGCTCG)
recombinant barcode read abundance (log10): 0.362

GATAGTGCTTGGGTTCTAACCTGTTGCCT (site GATAGTACTAG)
recombinant barcode read abundance (log10): 0.0881

GATAGTGCTTGGGTTCTAACCTGTTGCCT (site GATAGTCCTAG)
recombinant barcode read abundance (log10): 0.0622

GATAGTGCTTGGGTTCTAACCTGTTGCCT (site GATAGTGCTAG)
recombinant barcode read abundance (log10): 0.536

GATAGTGCTTGGGTTCTAACCTGTTGCCT (site GATAGTTCTAG)
recombinant barcode read abundance (log10): 0.0158

GATCAATCTTGGGTTCTAACCTGTTGCCT (site GAGCAAACTAG)
recombinant barcode read abundance (log10): 0.0249

GATCAATCTTGGGTTCTAACCTGTTGCCT (site GATCAATCTAG)
recombinant barcode read abundance (log10): 0.332

GATCGAGCTTGGGTTCTAACCTGTTGCGA (site GATCGAGCTTC)
recombinant barcode read abundance (log10): 0.921

GATCGAGCTTGGGTTCTAACCTGTTGCGA (site GATGGAGCTCC)
recombinant barcode read abundance (log10): 0.428

GATGGCCCTTGGGTTCTAACCTGTTGCTT (site GACGGACCTAA)
recombinant barcode read abundance (log10): 0.101

GATGGCCCTTGGGTTCTAACCTGTTGCTT (site GATGGCCCTAA)
recombinant barcode read abundance (log10): 0.528

GATGTAACTTGGGTTCTAACCTGTTGCCT (site GAAGTAACTAG)
recombinant barcode read abundance (log10): 0.191

GATGTAACTTGGGTTCTAACCTGTTGCCT (site GACGTAACTAG)
recombinant barcode read abundance (log10): 0.101

GATGTAACTTGGGTTCTAACCTGTTGCCT (site GAGGTAACTAG)
recombinant barcode read abundance (log10): 0.0797

GATGTAACTTGGGTTCTAACCTGTTGCCT (site GATGTAACTAG)
recombinant barcode read abundance (log10): 0.956

GATTCTACTTGGGTTCTAACCTGTTGCGT (site CATGCTACTAC)
recombinant barcode read abundance (log10): 0.0209

GATTCTACTTGGGTTCTAACCTGTTGCGT (site GATTCTACTAC)
recombinant barcode read abundance (log10): 0.0518

GATTCTCCTTGGGTTCTAACCTGTTGCGT (site GATTCTCCTAA)
recombinant barcode read abundance (log10): 0.0946

GATTCTCCTTGGGTTCTAACCTGTTGCGT (site GATTCTCCTAC)
recombinant barcode read abundance (log10): 0.541

GATTCTCCTTGGGTTCTAACCTGTTGCGT (site GATTCTCCTAG)
recombinant barcode read abundance (log10): 0.141

GATTCTCCTTGGGTTCTAACCTGTTGCGT (site GATTCTCCTAT)
recombinant barcode read abundance (log10): 0.118

GATTCTCCTTGGGTTCTAACCTGTTGCTT (site GATTCTCCTAA)
recombinant barcode read abundance (log10): 0.0943

GATTCTCCTTGGGTTCTAACCTGTTGCTT (site GATTCTCCTAC)
recombinant barcode read abundance (log10): 0.0499

GATTCTCCTTGGGTTCTAACCTGTTGCTT (site GATTCTCCTAG)
recombinant barcode read abundance (log10): 0.0621

GATTCTCCTTGGGTTCTAACCTGTTGCTT (site GATTCTCCTAT)
recombinant barcode read abundance (log10): 0.194

GCAAATCCTTGGGTTCTAACCTGTTGCCT (site GCAAATCCTAG)
recombinant barcode read abundance (log10): 0.873

GCAAATCCTTGGGTTCTAACCTGTTGCCT (site GCACATCCTAC)
recombinant barcode read abundance (log10): 0.108

GCAACCTCTTGGGTTCTAACCTGTTGCTA (site CGCTGACCTAG)
recombinant barcode read abundance (log10): 0.049

GCAACCTCTTGGGTTCTAACCTGTTGCTA (site GCAACCTCTTA)
recombinant barcode read abundance (log10): 1.92

GCAAGTACTTGGGTTCTAACCTGTTGCAG (site AGGTTAGCTTA)
recombinant barcode read abundance (log10): 0.106

GCAAGTACTTGGGTTCTAACCTGTTGCAG (site GCAAGTACTCT)
recombinant barcode read abundance (log10): 1.95

GCACAGACTTGGGTTCTAACCTGTTGCCT (site GCAAAGCCTAG)
recombinant barcode read abundance (log10): 0.207

GCACAGACTTGGGTTCTAACCTGTTGCCT (site GCACAGACTAG)
recombinant barcode read abundance (log10): 2.09

GCACAGTCTTGGGTTCTAACCTGTTGCTT (site CCATAGTCTAA)
recombinant barcode read abundance (log10): 0.0514

GCACAGTCTTGGGTTCTAACCTGTTGCTT (site GCACAGTCTAA)
recombinant barcode read abundance (log10): 1.93

GCACGAACTTGGGTTCTAACCTGTTGCCT (site GCACGAACTAG)
recombinant barcode read abundance (log10): 1

GCACGAACTTGGGTTCTAACCTGTTGCCT (site GCCCGAACTAG)
recombinant barcode read abundance (log10): 0.133

GCACGAACTTGGGTTCTAACCTGTTGCCT (site GCGCGAACTAG)
recombinant barcode read abundance (log10): 0.0581

GCACGAACTTGGGTTCTAACCTGTTGCCT (site GCTCGAACTAG)
recombinant barcode read abundance (log10): 0.0171

GCACTACCTTGGGTTCTAACCTGTTGCCT (site GCACAACCTAG)
recombinant barcode read abundance (log10): 0.0611

GCACTACCTTGGGTTCTAACCTGTTGCCT (site GCACCACCTAG)
recombinant barcode read abundance (log10): 0.534

GCACTACCTTGGGTTCTAACCTGTTGCCT (site GCACGACCTAG)
recombinant barcode read abundance (log10): 0.166

GCACTACCTTGGGTTCTAACCTGTTGCCT (site GCACTACCTAG)
recombinant barcode read abundance (log10): 1.37

GCACTGCCTTGGGTTCTAACCTGTTGCCT (site GCACTGCCTAG)
recombinant barcode read abundance (log10): 1.31

GCACTGCCTTGGGTTCTAACCTGTTGCCT (site GCCCTGCCTAG)
recombinant barcode read abundance (log10): 0.233

GCAGCGACTTGGGTTCTAACCTGTTGCCT (site GCAGCGACTAG)
recombinant barcode read abundance (log10): 1.78

GCAGCGACTTGGGTTCTAACCTGTTGCCT (site GCCGCGACTAG)
recombinant barcode read abundance (log10): 0.148

GCAGCGACTTGGGTTCTAACCTGTTGCCT (site GCGGCGACTAG)
recombinant barcode read abundance (log10): 0.277

GCAGCGACTTGGGTTCTAACCTGTTGCCT (site GCTGCGACTAG)
recombinant barcode read abundance (log10): 0.194

GCAGGGTCTTGGGTTCTAACCTGTTGCTT (site GCAGGGTCTAA)
recombinant barcode read abundance (log10): 2.4

GCAGGGTCTTGGGTTCTAACCTGTTGCTT (site GCCGGGTCTAA)
recombinant barcode read abundance (log10): 0.658

GCAGGGTCTTGGGTTCTAACCTGTTGCTT (site GCGGGGTCTAA)
recombinant barcode read abundance (log10): 0.646

GCAGGGTCTTGGGTTCTAACCTGTTGCTT (site GCTGGGTCTAA)
recombinant barcode read abundance (log10): 0.355

GCAGGTCCTTGGGTTCTAACCTGTTGCCT (site GCAGGTCCTAG)
recombinant barcode read abundance (log10): 0.788

GCAGGTCCTTGGGTTCTAACCTGTTGCCT (site GCCGGTCCTAG)
recombinant barcode read abundance (log10): 0.512

GCAGGTCCTTGGGTTCTAACCTGTTGCCT (site GCGGGTCCTAG)
recombinant barcode read abundance (log10): 0.744

GCAGGTCCTTGGGTTCTAACCTGTTGCCT (site GCTGGTCCTAG)
recombinant barcode read abundance (log10): 0.397

GCAGTAGCTTGGGTTCTAACCTGTTGCCA (site CCGGTAGCTTG)
recombinant barcode read abundance (log10): 0.188

GCAGTAGCTTGGGTTCTAACCTGTTGCCA (site GCAGTAGCTTG)
recombinant barcode read abundance (log10): 0.382

GCATATACTTGGGTTCTAACCTGTTGCGT (site AGTCCCGCTTG)
recombinant barcode read abundance (log10): 0

GCATATACTTGGGTTCTAACCTGTTGCGT (site GCATATACTAC)
recombinant barcode read abundance (log10): 2.15

GCATCGGCTTGGGTTCTAACCTGTTGCCT (site GCATCGGCTAG)
recombinant barcode read abundance (log10): 1.22

GCATCGGCTTGGGTTCTAACCTGTTGCCT (site GCCTCGGCTAG)
recombinant barcode read abundance (log10): 0.0153

GCATCGGCTTGGGTTCTAACCTGTTGCCT (site GCGTCGGCTAG)
recombinant barcode read abundance (log10): 0.0974

GCATCGGCTTGGGTTCTAACCTGTTGCCT (site GCTTCGGCTAG)
recombinant barcode read abundance (log10): 0.0102

GCATGACCTTGGGTTCTAACCTGTTGCAG (site CACAATACTAG)
recombinant barcode read abundance (log10): 0.343

GCATGACCTTGGGTTCTAACCTGTTGCAG (site GCATGACCTCT)
recombinant barcode read abundance (log10): 1.23

GCATGGACTTGGGTTCTAACCTGTTGCAG (site GCAAGGACTCT)
recombinant barcode read abundance (log10): 0.878

GCATGGACTTGGGTTCTAACCTGTTGCAG (site GCACGGACTCT)
recombinant barcode read abundance (log10): 1.92
